Experiments:
Type in all cases: in vivo
Sinapis [1] = assay: Post-emergent herbicidal action (contact herbicide); parameters: key: 1=complete damage; 9=no action; Ratings of 1 to 4 (in particular 1 to 3) mean a good to very good herbicidal action; conditions: 2000 g of active substance/ha, sprayed in the 4- to 6-leaf stage, evaluated after about 18 days, ratings scale 1-9
Method: (§1) Monocotyledon and dicotyledon test plants are grown in plastic pots with standard soil in a greenhouse and, in the 4- to 6-leaf stage, are sprayed with an aqueous suspension of the test substances of the formula 1, prepared from a 25% wettable power (Example F3, b)), corresponding to a dosage of 2000 g of active substance/ha (500 l of water/ha). The test plants are then grown further in the greenhouse under optimum conditions. After a test period of about 18 days, the test is evaluated with a ratings scale of 9 levels (1=complete damage, 9=no action). Ratings of 1 to 4 (in particular 1 to 3) mean a good to very good herbicidal action.
(§2) Test plants: Sinapis, Stellaria

Stellaria [2] = assay: as above; parameters: key: 1=complete damage; 9=no action; Ratings of 1 to 4 (in particular 1 to 3) mean a good to very good herbicidal action; conditions: 2000 g of active substance/ha, sprayed in the 4- to 6-leaf stage, evaluated after about 18 days, ratings scale 1-9
Method: as §1, §2

Avena = assay: Herbicidal action before emergence of the plants (pre-emergent action); conditions: 2000 g of active substance/ha, sprayed immediately after sowing, evaluated after 3 weeks, ratings scale of nine levels (1=complete damage, 9=no action)
Method: (§3) Monocotyledon and dicotyledon test plants are sown in standard soil in plastic pots. Immediately after sowing, the test substances are sprayed on (500 l of water/ha) in an aqueous suspension prepared from a 25% wettable powder (Example F3, b)), corresponding to a dosage of 2000 g of active substance/ha. The test plants are then grown under optimum conditions in a greenhouse. After a test period of 3 weeks, the test is evaluated with a ratings scale of nine levels (1=complete damage, 9=no action). Ratings of 1 to 4 (in particular 1 to 3) mean a good to very good herbicidal action.
(§4) Test plants: Avena, Setaria, Sinapis, Stellaria

Setaria = assay: as above; parameters: key: 1=complete damage; 9=no action; Ratings of 1 to 4 (in particular 1 to 3) mean a good to very good herbicidal action; conditions: 2000 g of active substance/ha, sprayed immediately after sowing, evaluated after 3 weeks, ratings scale of nine levels
Method: as §3, §4

Sinapis [3] = assay: as above; parameters: key: 1=complete damage; 9=no action; Ratings of 1 to 4 (in particular 1 to 3) mean a good to very good herbicidal action; conditions: 2000 g of active substance/ha, sprayed immediately after sowing, evaluated after 3 weeks, ratings scale of nine levels
Method: as §3, §4

Stellaria [4] = assay: as above; parameters: key: 1=complete damage; 9=no action; Ratings of 1 to 4 (in particular 1 to 3) mean a good to very good herbicidal action; conditions: 2000 g of active substance/ha, sprayed immediately after sowing, evaluated after 3 weeks, ratings scale of nine levels
Method: as §3, §4

Row | SMILES | Post-emergent action, rating, Sinapis (Sinapis [1]) | Post-emergent action, rating, Stellaria (Stellaria [2]) | Pre-emergent action, rating, Avena (Avena) | Pre-emergent action, rating, Setaria (Setaria) | Pre-emergent action, rating, Sinapis (Sinapis [3]) | Pre-emergent action, rating, Stellaria (Stellaria [4])
1 | CC1(C)CCC(OS2=NC(N)=NC(Oc3c(F)c(F)c(F)c(F)c3F)=N2)CC1 (stereo not drawn) [5.52] | 2 | 2 | 4 | 2 | 1 | 1
2 | CC(OS1=NC(N)=NC(Oc2c(F)c(F)c(F)c(F)c2F)=N1)[Si](C)(C)C (stereo not drawn) [5.329] | 1 | 5 | 2 | 1 | 1 | 1
3 | CC1(C)CCCN(S2=NC(N)=NC(Oc3c(F)c(F)c(F)c(F)c3F)=N2)C1 (stereo not drawn) [6.34] | 2 | 2 | 3 | 1 | 1 | 1
4 | CC1CN(S2=NC(N)=NC(Oc3c(F)c(F)c(F)c(F)c3F)=N2)CCC(C)(C)C1 (single isomer, unassigned) [6.93] | 1 | 1 | 2 | 1 | 1 | 1
5 | NC1=NS(N2CCCCCCCC2)=NC(Oc2c(F)c(F)c(F)c(F)c2F)=N1 (stereo not drawn) [6.257] | 2 | 2 | 3 | 2 | 1 | 1
6 | NC1=NC(Oc2c(F)c(F)c(F)c(F)c2F)=NS(N2CCCC3CCCCC32)=N1 (stereo not drawn) [6.37] | 3 | 2 | 3 | 2 | 1 | 1
7 | CC1CCN(S2=NC(N)=NC(Oc3c(F)c(F)c(F)c(F)c3F)=N2)C2CCCCC12 (stereo not drawn) [6.285] | 2 | 3 | 5 | 2 | 1 | 1
8 | CC1CC(N(C)S2=NC(N)=NC(Oc3c(F)c(F)c(F)c(F)c3F)=N2)CC(C)(C)C1 (stereo not drawn) [6.194] | 2 | 4 | 7 | 5 | 2 | 2
9 | CC1CN(S2=NC(N)=NC(Oc3c(F)c(F)c(F)c(F)c3F)=N2)CCC(C)(C)C1 (single isomer, unassigned) [6.92] | 1 | 1 | 4 | 1 | 1 | 1
10 | NC1=NC(Oc2c(F)c(F)c(F)c(F)c2F)=NS(OC2CCCCCCC2)=N1 (stereo not drawn) [5.176] | 2 | 2 | 4 | 2 | 1 | 1
11 | CC1(C)CCCC(OS2=NC(N)=NC(Oc3c(F)c(F)c(F)c(F)c3F)=N2)C1 (stereo not drawn) [5.131] | 1 | 3 | 4 | 2 | 1 | 1
12 | NC1=NS(N2CCC[C@H]3CCCC[C@H]32)=NC(Oc2c(F)c(F)cc(F)c2F)=N1 (relative stereo) [6.331] | 1 | 2 | 4 | 2 | 1 | 1
13 | CCN(C1CC(C)CC(C)(C)C1)S1=NC(N)=NC(Oc2c(F)c(F)c(F)c(F)c2F)=N1 (stereo not drawn) [6.140] | 2 | 3 | 4 | 3 | 2 | 1
14 | CC1CCC(OS2=NC(N)=NC(Oc3c(F)c(F)c(F)c(F)c3F)=N2)CC1 (stereo not drawn) [5.326] | 2 | 4 | 4 | 4 | 1 | 1
15 | NC1=NS(N2CCCCCC2)=NC(Oc2c(F)c(F)cc(F)c2F)=N1 (stereo not drawn) [6.89] | 2 | 3 | 2 | 2 | 1 | 1
16 | NC1=NS(N2CCc3ccccc3C2)=NC(Oc2c(F)c(F)cc(F)c2F)=N1 (stereo not drawn) [6.173] | 2 | 3 | 4 | 3 | 1 | 1
17 | CC1CCC2C(CCN2S2=NC(N)=NC(Oc3c(F)c(F)c(F)c(F)c3F)=N2)C1 (stereo not drawn) [6.298] | 1 | 4 | 3 | 2 | 1 | 1
18 | NC1=NC(Oc2c(F)c(F)c(F)c(F)c2F)=NS(N2CCc3ccccc3CC2)=N1 (stereo not drawn) [6.200] | 2 | 2 | 4 | 1 | 1 | 1
19 | CC1CC(C)CN(S2=NC(N)=NC(Oc3c(F)c(F)c(F)c(F)c3F)=N2)C1 (stereo not drawn) [6.124] | 2 | 3 | 3 | 1 | 1 | 1
20 | NC1=NC(Oc2c(F)c(F)c(F)c(F)c2F)=NS(N2CCCCCC2)=N1 (stereo not drawn) [6.229] | 2 | 3 | 3 | 2 | 1 | 1
